Assay results published in patent US8952169B2 (Genentech, Inc., priority 2012, dated 2015).
pIC50: −log10 of the molar value.

Tests used:
[1] = biological target: T1, hNav1.7 (Homo sapiens (Human), UniProt Q15858); assay: Tritiated aryl sulfonamide binding to membranes from cells expressing hNav1.7 and the β1 subunit (competitive binding); conditions: read-out: NaV1.7 395 Memb Binding (IC50)
Summary of the method: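 Competitive displacement of 100 μM [3H]-labelled tritiated aryl sulfonamide from hNav1.7/β1 membranes, 18 h at room temperature in 100 mM NaCl, 20 mM Tris HCl pH 7.4. Non-specific binding defined with 1 μM unlabelled compound. Filter-bound radioactivity measured by liquid scintillation counting.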

[2] = biological target: T1, hNav1.7; assay: Patch voltage clamp electrophysiology (PatchXpress), HEK-293 cells, inactivated state block; type: cell-based; conditions: read-out: EP_PX 293 hNav1.7 (IC50)
[3] = biological target: hNav1.5 (Homo sapiens (Human), UniProt Q14524); assay: as above; conditions: read-out: EP_PX 293 hNav1.5 (IC50), β1 coexpressed, holding −60 mV;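 also: control was the sodium current recorded in 0.5% DMSO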
Chain of hNav1.5 (Q14524 whole entry): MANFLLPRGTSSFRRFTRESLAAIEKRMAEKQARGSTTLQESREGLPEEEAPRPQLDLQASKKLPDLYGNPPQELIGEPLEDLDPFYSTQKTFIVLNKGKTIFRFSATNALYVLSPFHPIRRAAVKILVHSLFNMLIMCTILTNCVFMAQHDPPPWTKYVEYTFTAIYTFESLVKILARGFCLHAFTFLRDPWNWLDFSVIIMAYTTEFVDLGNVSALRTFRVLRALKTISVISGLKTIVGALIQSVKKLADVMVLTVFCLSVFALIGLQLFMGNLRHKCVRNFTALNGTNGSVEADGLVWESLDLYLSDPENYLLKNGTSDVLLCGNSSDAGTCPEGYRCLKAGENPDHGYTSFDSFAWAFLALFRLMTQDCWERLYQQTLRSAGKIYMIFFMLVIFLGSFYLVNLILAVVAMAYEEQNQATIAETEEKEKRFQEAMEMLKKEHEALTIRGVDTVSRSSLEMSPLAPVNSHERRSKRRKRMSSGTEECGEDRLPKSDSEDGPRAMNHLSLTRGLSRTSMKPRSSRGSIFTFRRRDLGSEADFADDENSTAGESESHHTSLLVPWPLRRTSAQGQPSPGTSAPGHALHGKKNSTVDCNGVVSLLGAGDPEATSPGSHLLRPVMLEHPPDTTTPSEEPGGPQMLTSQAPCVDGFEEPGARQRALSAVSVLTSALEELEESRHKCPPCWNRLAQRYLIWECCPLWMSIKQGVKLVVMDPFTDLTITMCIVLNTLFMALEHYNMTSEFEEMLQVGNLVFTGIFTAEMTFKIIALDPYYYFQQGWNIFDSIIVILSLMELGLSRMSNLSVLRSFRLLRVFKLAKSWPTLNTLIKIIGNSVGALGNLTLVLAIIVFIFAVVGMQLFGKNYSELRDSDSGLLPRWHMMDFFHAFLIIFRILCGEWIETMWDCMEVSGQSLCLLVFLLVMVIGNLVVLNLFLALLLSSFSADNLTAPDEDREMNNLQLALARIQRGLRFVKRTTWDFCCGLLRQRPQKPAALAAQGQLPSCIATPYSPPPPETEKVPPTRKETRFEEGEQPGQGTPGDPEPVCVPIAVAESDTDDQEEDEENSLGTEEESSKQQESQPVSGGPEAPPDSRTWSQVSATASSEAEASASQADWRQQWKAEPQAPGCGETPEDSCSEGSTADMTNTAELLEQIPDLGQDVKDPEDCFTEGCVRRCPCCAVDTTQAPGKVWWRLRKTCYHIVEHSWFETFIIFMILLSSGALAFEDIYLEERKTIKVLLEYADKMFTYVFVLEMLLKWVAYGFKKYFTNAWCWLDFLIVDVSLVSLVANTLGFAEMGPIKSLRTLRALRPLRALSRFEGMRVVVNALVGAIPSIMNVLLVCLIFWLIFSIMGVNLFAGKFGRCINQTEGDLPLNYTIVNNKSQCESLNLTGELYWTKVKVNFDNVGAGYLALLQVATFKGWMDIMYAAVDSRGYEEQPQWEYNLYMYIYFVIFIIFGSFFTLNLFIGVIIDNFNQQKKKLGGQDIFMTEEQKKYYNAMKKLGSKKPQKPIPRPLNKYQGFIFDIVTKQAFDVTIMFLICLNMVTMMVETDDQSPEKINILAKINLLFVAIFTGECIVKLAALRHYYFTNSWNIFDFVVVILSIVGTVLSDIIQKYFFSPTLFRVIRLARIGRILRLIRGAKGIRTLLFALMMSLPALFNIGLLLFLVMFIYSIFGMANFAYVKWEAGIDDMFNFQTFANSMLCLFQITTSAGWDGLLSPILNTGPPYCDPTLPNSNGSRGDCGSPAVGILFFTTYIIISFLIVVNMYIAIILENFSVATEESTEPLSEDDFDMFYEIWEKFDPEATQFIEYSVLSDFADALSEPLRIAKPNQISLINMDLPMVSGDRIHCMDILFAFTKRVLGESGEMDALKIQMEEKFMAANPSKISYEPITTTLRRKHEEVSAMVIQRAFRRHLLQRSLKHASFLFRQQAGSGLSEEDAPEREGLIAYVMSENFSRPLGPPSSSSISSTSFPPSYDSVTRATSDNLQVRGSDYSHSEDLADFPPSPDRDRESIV

[4] = membranes with hNav1.7 and β1 subunit, [3H]compound displacement, 18 h, room temperature
[5] = HEK-293 cells, β1 coexpressed, inactivated state, holding −60 mV

T1 sequence (Q15858 whole entry, looked up): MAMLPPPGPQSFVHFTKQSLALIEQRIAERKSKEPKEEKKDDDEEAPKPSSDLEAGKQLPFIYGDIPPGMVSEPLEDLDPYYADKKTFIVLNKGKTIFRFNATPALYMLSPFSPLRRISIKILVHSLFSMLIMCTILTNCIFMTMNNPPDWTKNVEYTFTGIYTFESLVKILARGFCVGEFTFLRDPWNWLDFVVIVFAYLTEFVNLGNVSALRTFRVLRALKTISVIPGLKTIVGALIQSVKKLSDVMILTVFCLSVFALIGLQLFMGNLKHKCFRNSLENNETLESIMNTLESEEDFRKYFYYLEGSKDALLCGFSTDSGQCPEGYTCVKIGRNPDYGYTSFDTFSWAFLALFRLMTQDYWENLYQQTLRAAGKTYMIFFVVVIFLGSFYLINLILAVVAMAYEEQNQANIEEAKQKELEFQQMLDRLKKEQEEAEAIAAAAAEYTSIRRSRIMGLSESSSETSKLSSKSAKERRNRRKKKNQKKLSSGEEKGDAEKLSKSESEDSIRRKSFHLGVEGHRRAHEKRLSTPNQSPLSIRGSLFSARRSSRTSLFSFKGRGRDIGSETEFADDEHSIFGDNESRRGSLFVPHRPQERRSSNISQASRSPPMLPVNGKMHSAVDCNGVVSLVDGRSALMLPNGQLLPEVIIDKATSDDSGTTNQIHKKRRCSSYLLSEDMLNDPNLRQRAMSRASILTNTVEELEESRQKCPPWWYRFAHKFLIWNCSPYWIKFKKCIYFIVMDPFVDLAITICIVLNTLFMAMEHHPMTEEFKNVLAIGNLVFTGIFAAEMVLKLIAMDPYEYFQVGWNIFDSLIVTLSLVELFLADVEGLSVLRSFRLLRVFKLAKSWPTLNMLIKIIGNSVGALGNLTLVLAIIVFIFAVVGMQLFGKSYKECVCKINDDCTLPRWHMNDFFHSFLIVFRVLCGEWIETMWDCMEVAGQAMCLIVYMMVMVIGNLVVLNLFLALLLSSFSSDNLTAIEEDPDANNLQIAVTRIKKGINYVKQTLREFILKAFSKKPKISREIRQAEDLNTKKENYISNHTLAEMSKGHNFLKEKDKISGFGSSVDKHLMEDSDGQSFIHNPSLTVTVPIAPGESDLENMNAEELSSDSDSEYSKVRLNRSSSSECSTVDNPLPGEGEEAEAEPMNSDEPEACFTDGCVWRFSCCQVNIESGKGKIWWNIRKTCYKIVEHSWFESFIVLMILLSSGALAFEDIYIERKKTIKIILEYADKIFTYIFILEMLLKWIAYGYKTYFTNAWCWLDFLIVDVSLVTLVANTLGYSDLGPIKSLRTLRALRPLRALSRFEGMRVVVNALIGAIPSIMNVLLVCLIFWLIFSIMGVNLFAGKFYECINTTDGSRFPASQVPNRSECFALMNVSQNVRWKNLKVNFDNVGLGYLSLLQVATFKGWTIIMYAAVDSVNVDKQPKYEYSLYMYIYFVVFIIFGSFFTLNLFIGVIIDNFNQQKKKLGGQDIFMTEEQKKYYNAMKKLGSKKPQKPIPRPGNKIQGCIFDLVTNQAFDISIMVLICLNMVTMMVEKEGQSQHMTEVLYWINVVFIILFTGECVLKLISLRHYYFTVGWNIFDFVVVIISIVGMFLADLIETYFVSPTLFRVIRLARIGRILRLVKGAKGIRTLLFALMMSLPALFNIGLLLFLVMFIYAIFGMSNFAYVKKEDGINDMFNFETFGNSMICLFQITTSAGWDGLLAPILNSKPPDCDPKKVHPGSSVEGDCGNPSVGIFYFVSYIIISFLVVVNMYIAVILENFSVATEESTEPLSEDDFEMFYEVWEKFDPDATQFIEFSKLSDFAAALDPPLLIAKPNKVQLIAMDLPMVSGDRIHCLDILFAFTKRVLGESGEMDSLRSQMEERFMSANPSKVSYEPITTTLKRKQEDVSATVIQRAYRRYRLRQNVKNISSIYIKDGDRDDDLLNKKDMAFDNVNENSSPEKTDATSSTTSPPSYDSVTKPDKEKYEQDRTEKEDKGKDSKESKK
T1 sequence (Q07699 whole entry partner, looked up): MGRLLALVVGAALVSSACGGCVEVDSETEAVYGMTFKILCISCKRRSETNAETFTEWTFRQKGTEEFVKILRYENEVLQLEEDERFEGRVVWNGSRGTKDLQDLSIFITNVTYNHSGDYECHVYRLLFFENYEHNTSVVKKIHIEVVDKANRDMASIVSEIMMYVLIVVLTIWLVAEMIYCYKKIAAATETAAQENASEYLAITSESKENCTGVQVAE

pIC50 [1, 4]	pIC50 [2, 5]	SMILES	pIC50 [1]	pIC50 [2]	pIC50 [3]
		O=C(NS(=O)(=O)N1CCC1)c1cc(C2CC2)c(OCC2CCCCC2)cc1F	8.22	9.00	7.40
7.29	8.12	CS(=O)(=O)NC(=O)c1ccc(OCC23CC4CC(CC(C4)C2)C3)c(Br)c1			5.71
8.52	8.88	CS(=O)(=O)NC(=O)c1ccc(OCC23CC4CC(CC(C4)C2)C3)c(C2CC2)c1			6.15
6.66	7.27	CN(C)S(=O)(=O)NC(=O)c1cc(Cl)c(OCC23CC4CC(C2)C(F)(F)C(C4)C3)cc1F [Example 92]			5.42
7.96	7.85	CS(=O)(=O)NC(=O)c1cc(C2CC2)c(OCC2CN(C(c3ccccc3)c3ccccc3)C2)cc1F [Example 440, 4-((1-benzhydrylazetidin-3-yl)methoxy)-5-cyclopropyl-2-fluoro-N-(methylsulfonyl)benzamide]			5.60
8.03	8.44	CS(=O)(=O)NC(=O)c1cc(Cl)c(OCC2CC3C4CCC(C4)C3C2)cc1F (stereo not drawn) [Example 445]			6.13
8.80	8.51	O=C(NS(=O)(=O)C1CC1)c1cc(C2CC2)c(OCC2(C(F)(F)F)CCCCC2)cc1F [Example 446, 5-cyclopropyl-N-(cyclopropylsulfonyl)-2-fluoro-4-((1-(trifluoromethyl)-cyclohexyl)methoxy)benzamide]			6.80
7.74	8.11	O=C(NS(=O)(=O)N1CCC1)c1cc(C2CC2)c(OCC2CCC(F)(F)CC2)cc1F [Example 448, N-(azetidin-1-ylsulfonyl)-5-cyclopropyl-4-((4,4-difluorocyclohexyl)-methoxy)-2-fluorobenzamide]			6.03
